The test system of experiment [1] is Streptococcus sp. 'group A'. The experiment in a line: growth inhibition of control SK(-) GAS strain, dose response, counter-screen for streptokinase expression inhibitor project, luminescence, kanamycin, BacTiterGlo, confirmation (AID 1900). It is filed as functional, organism-based.
The target of experiment [2] is T1, Zinc finger protein mex-5 (Caenorhabditis elegans, UniProt Q9XUB2).
T1 sequence (Q9XUB2 whole entry): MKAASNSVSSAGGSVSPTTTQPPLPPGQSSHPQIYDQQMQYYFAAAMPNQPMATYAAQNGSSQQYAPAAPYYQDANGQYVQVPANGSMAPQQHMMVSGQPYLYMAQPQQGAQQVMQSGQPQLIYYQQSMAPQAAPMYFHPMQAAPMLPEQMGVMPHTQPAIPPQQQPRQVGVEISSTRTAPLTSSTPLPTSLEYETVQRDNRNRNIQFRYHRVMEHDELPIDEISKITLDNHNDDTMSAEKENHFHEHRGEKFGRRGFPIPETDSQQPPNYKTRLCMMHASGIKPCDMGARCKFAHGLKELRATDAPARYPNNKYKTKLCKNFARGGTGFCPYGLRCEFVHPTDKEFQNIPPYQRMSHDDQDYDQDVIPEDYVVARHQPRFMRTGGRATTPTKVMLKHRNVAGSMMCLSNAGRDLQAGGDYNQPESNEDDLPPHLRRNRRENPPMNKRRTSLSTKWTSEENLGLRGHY
The experiment in a line: MEX-5/TCR-2 RNA interaction inhibitors, dose response, biochemical, C. elegans, fluorescence polarization (AID 1960). In general terms: In fluorescence polarisation assays a small probe gives low polarisation when free and higher when bound to something large.

Experiment [3] deals with T2, Probable nicotinate-nucleotide adenylyltransferase (Staphylococcus aureus (strain N315), UniProt P65502). It counts as functional, Staphylococcus aureus subsp. aureus N315. The settings on record: read-out: IC50_Mean.
For experiment [4], the target named is T2, Probable nicotinate-nucleotide adenylyltransferase. It counts as functional, Staphylococcus aureus subsp. aureus N315.
Experiment [5] deals with T3, RNA-binding protein pos-1 (Caenorhabditis elegans, UniProt G5EF15).
T3 sequence (G5EF15 whole entry): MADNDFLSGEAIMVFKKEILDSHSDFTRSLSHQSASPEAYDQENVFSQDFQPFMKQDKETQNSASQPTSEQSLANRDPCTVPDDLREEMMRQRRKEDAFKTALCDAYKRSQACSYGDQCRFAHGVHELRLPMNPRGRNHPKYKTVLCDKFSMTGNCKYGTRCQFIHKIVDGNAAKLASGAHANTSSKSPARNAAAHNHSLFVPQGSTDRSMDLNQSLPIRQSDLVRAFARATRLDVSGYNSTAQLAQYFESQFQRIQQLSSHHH
The experiment in a line: inhibitors of POS-1/mex-3 RNA binding, dose response, biochemical, fluorescence polarization (AID 1964).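 Note: purified POS-1 fused to maltose binding protein made in E. coli; potency of compounds blocking POS-1 binding to fluorescent RNA.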

For the next experiment, the target named is T4, Streptokinase A (Streptococcus pyogenes serotype M1, UniProt P10520).
T4 sequence (P10520 whole entry): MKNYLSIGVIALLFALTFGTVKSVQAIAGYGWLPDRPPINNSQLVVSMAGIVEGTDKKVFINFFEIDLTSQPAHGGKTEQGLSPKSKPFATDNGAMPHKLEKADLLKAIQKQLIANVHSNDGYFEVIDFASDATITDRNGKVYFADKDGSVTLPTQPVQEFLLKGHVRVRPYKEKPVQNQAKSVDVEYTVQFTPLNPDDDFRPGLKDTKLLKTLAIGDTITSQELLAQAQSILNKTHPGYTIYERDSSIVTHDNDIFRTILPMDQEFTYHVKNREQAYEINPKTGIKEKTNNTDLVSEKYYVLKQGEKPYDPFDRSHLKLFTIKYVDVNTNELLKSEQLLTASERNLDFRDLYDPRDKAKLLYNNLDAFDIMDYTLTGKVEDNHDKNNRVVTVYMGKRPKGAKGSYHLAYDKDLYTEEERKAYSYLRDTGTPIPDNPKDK
The experiment in a line: S. pyogenes streptokinase expression inhibitors, potency, dose response, plasminogen activation absorbance, OD405 (AID 1914).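 Note: secreted streptokinase activity via plasminogen activation per viability signal from cell pellet.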 It is filed as functional, Streptococcus pyogenes M1 GAS.

The next experiment has as its system Streptococcus. In words: Group A Streptococcus viability loss, dose response, counter-screen for streptokinase expression inhibitor project, luminescence, BacTiterGlo (AID 1915).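 Note: potency for reduction of bacterial viability or growth.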 It counts as functional, organism-based. In general terms: Counterscreens check selectivity or assay interference.
For experiment [6], the target named is T5, Rac GTPase-activating protein 1 (Homo sapiens, UniProt Q9H0H5).
T5 sequence (Q9H0H5 whole entry): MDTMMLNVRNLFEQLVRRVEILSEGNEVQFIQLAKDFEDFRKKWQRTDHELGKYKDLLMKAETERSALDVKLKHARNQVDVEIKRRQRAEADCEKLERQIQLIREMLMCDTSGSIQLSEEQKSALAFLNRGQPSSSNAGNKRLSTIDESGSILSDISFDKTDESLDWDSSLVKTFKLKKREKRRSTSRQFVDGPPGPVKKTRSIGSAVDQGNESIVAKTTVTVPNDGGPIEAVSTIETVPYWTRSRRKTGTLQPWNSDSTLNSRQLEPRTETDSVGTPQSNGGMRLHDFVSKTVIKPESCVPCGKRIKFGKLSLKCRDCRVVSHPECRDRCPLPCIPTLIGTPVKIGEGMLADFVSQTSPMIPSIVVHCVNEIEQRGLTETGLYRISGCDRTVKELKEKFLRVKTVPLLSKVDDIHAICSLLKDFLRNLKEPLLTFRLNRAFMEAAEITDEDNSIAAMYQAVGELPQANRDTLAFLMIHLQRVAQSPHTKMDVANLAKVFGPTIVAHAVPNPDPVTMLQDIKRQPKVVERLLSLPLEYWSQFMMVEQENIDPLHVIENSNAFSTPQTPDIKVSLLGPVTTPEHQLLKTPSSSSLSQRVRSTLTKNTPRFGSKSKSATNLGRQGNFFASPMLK
The experiment in a line: MgcRacGAP GTPase-activating activity inhibitors, confirmation, biochemical, ADP Hunter fluorescence, primary and confirmatory (AID 624330). It counts as functional.

The next experiment has as its system H9c2. The experiment in a line: cells. It is filed as functional, cell-based. The note with it: Rattus norvegicus, H9c2, Myocardium.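 Note: confirmatory concentration-response retest of ultra-high-throughput screening hits for modulation of myocardial damage; cell death induced by hydrogen peroxide oxidative stress; compound pretreatment for 60 min then peroxide exposure for 2 h; potency is for protecting the cells against peroxide damage rather than for killing them.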
The target of experiment [7] is Dual specificity tyrosine-phosphorylation-regulated kinase 1B (Homo sapiens, UniProt Q9Y463). In words: Navigating the Kinome. Panel member name: DYRK1B. It is filed as functional.
Experiment [8] deals with T6, Tyrosine-protein kinase receptor TYRO3 (Homo sapiens, UniProt Q06418).
T6 sequence (Q06418 whole entry): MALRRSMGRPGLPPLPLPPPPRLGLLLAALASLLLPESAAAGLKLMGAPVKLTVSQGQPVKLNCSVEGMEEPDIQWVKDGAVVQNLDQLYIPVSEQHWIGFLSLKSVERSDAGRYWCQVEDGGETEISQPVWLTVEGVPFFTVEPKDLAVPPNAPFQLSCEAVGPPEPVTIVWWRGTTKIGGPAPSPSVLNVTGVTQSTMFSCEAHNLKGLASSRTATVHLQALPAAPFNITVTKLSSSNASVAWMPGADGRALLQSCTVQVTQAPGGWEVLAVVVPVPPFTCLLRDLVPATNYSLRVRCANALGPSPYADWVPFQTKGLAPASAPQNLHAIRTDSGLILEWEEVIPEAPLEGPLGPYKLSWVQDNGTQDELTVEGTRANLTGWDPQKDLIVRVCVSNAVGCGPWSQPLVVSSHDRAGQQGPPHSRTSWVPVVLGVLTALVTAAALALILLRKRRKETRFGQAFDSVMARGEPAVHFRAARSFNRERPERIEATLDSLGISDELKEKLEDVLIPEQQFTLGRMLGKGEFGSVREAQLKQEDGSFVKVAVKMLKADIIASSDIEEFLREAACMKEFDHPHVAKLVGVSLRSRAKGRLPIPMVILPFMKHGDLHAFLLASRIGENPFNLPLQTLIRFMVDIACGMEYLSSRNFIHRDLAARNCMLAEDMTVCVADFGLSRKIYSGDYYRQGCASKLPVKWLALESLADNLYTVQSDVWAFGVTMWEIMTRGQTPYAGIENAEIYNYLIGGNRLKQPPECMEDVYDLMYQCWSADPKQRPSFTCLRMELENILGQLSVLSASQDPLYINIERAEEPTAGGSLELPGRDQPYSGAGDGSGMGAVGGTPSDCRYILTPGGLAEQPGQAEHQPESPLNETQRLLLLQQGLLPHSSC
It counts as functional.

Experiment [9] is described as follows: miR-122 activators in hepatoma reporter cells, dose response, cell-based, Huh7 psiCHECK-miR122, Renilla luciferase, cherry-picked (AID 651956).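 Note: huh7 hepatoma cells stably carrying a psiCHECK-2 miR-122 sensor plasmid; renilla luciferase signal reporting endogenous miR-122 activity after 48 h compound exposure.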 It is filed as functional.
Experiment [10] is described as follows: HEK293T cytotoxicity, dose response, cytotoxicity control for miR-122 modulator project, cell-based, inhibitor set, cherry-pick, set 2 (AID 720697). It counts as functional.
Experiment [11] in a line: cytotoxicity in OVCAR8 ovarian cancer cells, dose response, PAX8 project, cell-based, plate reader, dry powder samples (AID 743197). It is filed as functional. The settings on record: OVCAR-8.
The nature of experiment [12]: IGROV1 ovarian cancer cell cytotoxicity, dose response, PAX8 inhibitor project, plate reader, dry powder samples (AID 743043). It counts as functional, cell-based. The settings on record: IGROV-1.
Experiment [13] in a line: NIH:OVCAR-3 ovarian cancer cell cytotoxicity, dose response, PAX8 inhibitor project, plate reader, dry powder samples (AID 743044). It is filed as functional, cell-based.
For the next experiment, the target named is Paired box protein Pax-8 (Homo sapiens, UniProt Q06710). The experiment in a line: inhibitors of PAX8-driven TPO luciferase reporter, dose response, RMG-I cells, cherry-pick (AID 687027).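 Note: luciferase reporter driven by Pax8 target thyroperoxidase promoter measured by SteadyGlo luminescence.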 It is filed as functional, cell-based. A general note: In a reporter assay the amount or activity of a reporter protein is the signal.
In experiment [14] the target is T7, Small ubiquitin-related modifier 1 (Homo sapiens, UniProt P63165). In words: inhibitors of SUMO1 peptide binding, dose response, biochemical, fluorescence polarization, uHTS hits (AID 624382). The settings on record: read-out: IC50_Mean. It is filed as functional.
In experiment [15] the target is T7, Small ubiquitin-related modifier 1. In words: inhibitors of SUMO1 partner interactions, dose response, biochemical, FRET (AID 624383). It is filed as functional. The note with it: read-out: IC50_Mean.

This note sets out measurements from ChEMBL document CHEMBL1201862, “PubChem BioAssay data set” (2004).

Active and inactive are the calls of the source.

T2 sequence (P65502 whole entry): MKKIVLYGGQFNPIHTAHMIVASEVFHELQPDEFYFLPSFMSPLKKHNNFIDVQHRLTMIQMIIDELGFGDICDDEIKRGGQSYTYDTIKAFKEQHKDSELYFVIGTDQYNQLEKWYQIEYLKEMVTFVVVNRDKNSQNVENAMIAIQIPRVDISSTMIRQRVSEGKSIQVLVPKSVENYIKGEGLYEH
T7 sequence (P63165 whole entry): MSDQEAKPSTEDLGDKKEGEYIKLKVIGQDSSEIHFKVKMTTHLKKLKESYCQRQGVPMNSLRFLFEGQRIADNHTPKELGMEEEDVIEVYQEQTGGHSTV
Paired box protein Pax-8, sequence (Q06710 whole entry): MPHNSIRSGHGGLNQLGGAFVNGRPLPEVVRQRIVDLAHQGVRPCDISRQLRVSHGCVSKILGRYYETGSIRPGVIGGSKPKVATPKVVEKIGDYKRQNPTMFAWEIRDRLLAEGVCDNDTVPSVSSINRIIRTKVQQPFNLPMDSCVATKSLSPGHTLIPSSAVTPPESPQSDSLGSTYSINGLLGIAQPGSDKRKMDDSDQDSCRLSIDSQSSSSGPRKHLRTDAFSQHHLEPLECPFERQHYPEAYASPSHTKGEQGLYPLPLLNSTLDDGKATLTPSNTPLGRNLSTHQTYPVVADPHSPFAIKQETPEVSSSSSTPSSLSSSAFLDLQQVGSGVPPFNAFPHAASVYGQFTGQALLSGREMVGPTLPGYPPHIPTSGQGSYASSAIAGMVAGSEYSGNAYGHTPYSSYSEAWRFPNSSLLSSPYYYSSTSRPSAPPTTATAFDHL
Dual specificity tyrosine-phosphorylation-regulated kinase 1B, sequence (Q9Y463 whole entry): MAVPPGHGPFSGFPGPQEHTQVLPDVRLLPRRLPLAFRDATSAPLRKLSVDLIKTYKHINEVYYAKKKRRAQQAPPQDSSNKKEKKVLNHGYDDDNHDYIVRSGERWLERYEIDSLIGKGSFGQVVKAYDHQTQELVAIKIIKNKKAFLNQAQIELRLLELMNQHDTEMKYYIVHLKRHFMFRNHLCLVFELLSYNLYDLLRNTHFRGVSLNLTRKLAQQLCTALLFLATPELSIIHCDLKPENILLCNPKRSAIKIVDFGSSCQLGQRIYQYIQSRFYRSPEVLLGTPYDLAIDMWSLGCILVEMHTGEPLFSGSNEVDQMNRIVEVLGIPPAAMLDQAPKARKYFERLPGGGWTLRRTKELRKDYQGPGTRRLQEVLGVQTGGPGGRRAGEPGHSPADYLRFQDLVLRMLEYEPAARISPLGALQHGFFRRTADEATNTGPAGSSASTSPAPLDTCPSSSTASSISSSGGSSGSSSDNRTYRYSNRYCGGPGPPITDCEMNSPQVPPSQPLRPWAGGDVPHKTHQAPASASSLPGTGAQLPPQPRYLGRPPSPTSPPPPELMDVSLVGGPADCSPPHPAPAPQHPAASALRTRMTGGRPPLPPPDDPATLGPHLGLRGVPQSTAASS

As to `Cc1cccc2sc(NNC(=O)c3cc(=O)c4ccccc4o3)nc12`, the 50% effective concentration (EC50) in experiment [1] was 0.449 µM (active); in experiment [2] it was > 300 µM (not active); in experiment [5] it was > 300 µM (not active); on Streptokinase A, > 150 µM (not active); in the experiment with Streptococcus it was 7.43 µM (active). In addition, the IC50 is 35.2 µM (active) in experiment [3], 5.9 µM (active) in experiment [4] and 94 µM (active) in experiment [6].
In the case of `Cc1ccc(Cl)cc1N1CCN(S(=O)(=O)c2ccc3[nH]c(=O)c(=O)[nH]c3c2)CC1`, the IC50 is 52.8 µM (active) in experiment [3] and 7.01 µM (active) in experiment [4].
Regarding `COc1cccc(Nc2nc(-c3sc(NC(=O)c4ccco4)nc3C)cs2)c1`, the figures for the IC50 (in the experiment with H9c2; in experiment [3]; in experiment [4]) were > 79 µM (inactive), 33.2 µM (active) and 13.5 µM (active), respectively.
On to `O=c1[nH]c2cnc(Cl)nc2[nH]1`, for which the inhibition constant (Ki) in experiment [7] and in experiment [8] was 79.4 µM (active) in each case.
Turning to `COc1ccc(-c2ccc3c(c2)O[C@H](CN(C)C(=O)Nc2ccccc2F)[C@H](C)CN([C@@H](C)CO)S3(=O)=O)cc1`, the half-maximal activity concentration (AC50) in experiment [9] was 9.32 µM (active); in [10], 0.5 µM (active).
Regarding `CNC(=O)C[C@H]1CC[C@@H]2[C@H](COc3ccc(NS(=O)(=O)c4ccc(F)cc4)cc3C(=O)N2C)O1`, in experiment [9], the AC50 is 47.9 µM (active).
Turning to `C[C@@H]1CCCCO[C@@H](CN(C)C(=O)Nc2ccc(C(F)(F)F)cc2)[C@H](C)CN([C@H](C)CO)C(=O)c2cc(NS(=O)(=O)c3cccs3)ccc2O1`, the AC50 in experiment [11] was 39.4 µM (active); in experiment [12], 45.5 µM (active); in experiment [13], 20 µM (active); at Paired box protein Pax-8, 8.64 µM (active).
Consider `O=C(N/N=C/c1cccnc1)c1cccc(NC(=O)c2ccc(Cl)cc2)c1`, for which the IC50 was > 66.6 µM (inactive) in experiment [14] and 5.33 µM (active) in [15].

A word on the EC50: it is the concentration needed to bring the measured effect to its halfway point. A word on the Ki: it is a dissociation constant, usually derived from enzyme kinetics or from competition with a known ligand. As usually defined, the AC50 is the concentration giving half of the maximal activity seen.
